Assay results taken from paper PMC10472371, “Discovery of E2730, a novel selective uncompetitive GAT1 inhibitor, as a candidate for anti‐seizure medication” (Epilepsia Open, 2023).

Assays:
corneal kindling mice = assay: Corneal kindling in mice; format: in vivo; details: Mus musculus; oral, 1 hour before electrical stimulation; read-out: ED50 (95% CI) in corneal kindling mice
Text: A corneal kindling mouse model was developed following the method described by Potschka and Löscher.[7] Male C57BL/6N mice (5 weeks old; Charles River Laboratories Japan, Japan) were stimulated using corneal electrodes (4 mA, 50 Hz, 3‐second duration each) twice daily for 10 consecutive days, and stimulated mice were observed and rated based on the Racine's scale (0, no seizure; 1, mild facial clonus and eye blinking; 2, severe facial clonus, head nodding, or chewing; 3, unilateral or alternating forelimb clonus; 4, bilateral forelimb clonus and rearing; 5, bilateral forelimb clonus with rearing and falling). Mice with scores ≥3 were deemed epileptic, whereas mice with scores <3 were deemed non‐epileptic. Mice rated 4 or 5 (i.e. fully kindled mice) were used for drug evaluation.

amygdala kindling rats = assay: Amygdala kindling in rats; format: in vivo, rat
Text: A tripolar electrode was implanted into the basolateral amygdala of Wistar‐Kyoto rats (male, 7 weeks old; Charles River Laboratories Japan, Japan). After at least 5 days of recovery, the amygdala was stimulated using an electronic stimulator at currents starting at 0.04 mA (50 Hz, 1 millisecond monophasic square‐wave pulses, 1‐second duration each) then increasing by 25% to a 30‐second duration until the after‐discharge threshold (ADT) was attained. ADT was defined as the current at which abnormal electroencephalogram and at least Racine's stage‐1 seizure behavior were observed. In the Racine's stage, seizure severity was classified as: 1, mouth and facial movements; 2, head nodding; 3, forelimb clonus; 4, rearing; 5, rearing and falling. From the next day onwards, electrical stimulation at the previously determined ADT was performed once daily in each rat. The rats showing ≥3 consecutive Racine stage‐5 seizures were deemed epileptic and used for drug evaluation. The pre‐ADT (i.e. baseline) seizure threshold of each rat was established prior to drug administration. After >1 hour following the determination of pre‐ADT seizure threshold, E2730 (5–50 mg/kg), levetiracetam (25 mg/kg), or vehicle was orally administered to the rats. One hour after the administration, the post‐ADT seizure threshold of each rat was ascertained, and the ratios of post‐ADT to pre‐ADT readings were analyzed.

Fmr1 KO mice = assay: Audiogenic seizures in Fmr1 knockout mice (fragile X syndrome model); format: in vivo; details: Mus musculus, oral, 1 hour before audio stimulation, read-out: ED50 (95% CI) for tonic-clonic seizures, audiogenic seizures
Experimental: Fragile X syndrome (FXS) is the most common single‐gene cause of autism spectrum disorder, typically due to mutations in the FMR1 gene; 10–18% of patients with FXS experience seizures.[8] The Fmr1 knockout (KO) mouse is an established animal model for FXS. E2730 (2.5–300 mg/kg) or vehicle was orally administered to Fmr1 KO mice (male, 20–27 days postnatal; Jackson Laboratory) 1 hour prior to drug evaluation. The mice were placed in a sound‐attenuating acoustic chamber and acclimated for 5 minutes and exposed to an audio stimulation (110 dB, 60‐second duration), and the behavior of the stimulated mice was video recorded and monitored for tonic–clonic seizures.

[1] = target: T1, human brain synaptosomal membranes (Homo sapiens, UniProt P30531); assay: Saturation binding of [3H]E2730 in human brain synaptosomal membranes
T1 construct: from tissue; host or cells: human cerebral cortex; synaptosomal membranes
Experimental: Synaptosomal membranes were prepared using the whole brain without cerebellum, brainstem, or olfactory bulb from Sprague Dawley rats (male, 7 weeks old) or human cerebral cortex based on Fuks et al.[10] and Hanada et al.[11] Synaptosomal membranes (0.4 mg protein/tube) were incubated with 9.8–5000 nM [^3H]E2730 for 120 minutes at 4°C. Non‐specific binding was defined as the residual binding observed in the presence of 1 mM unlabeled E2730. […] The filters were washed three times with ice‐cold 50 mM Tris–HCl buffer (pH 7.4) and incubated overnight in a scintillator (PerkinElmer), then the radioactivity was measured by a liquid scintillation counter (PerkinElmer).

hBGT-1 = target: T2, hBGT-1 (Homo sapiens, UniProt P48065); assay: [3H]GABA uptake in hBGT-1 stably expressing HEK293 cells; format: cell-based; details: hBGT-1 HEK293 cells, 50 μM [3H]GABA
T2 construct: expressed in transfected cells; host or cells: HEK293
T2 sequence (P48065 1-614): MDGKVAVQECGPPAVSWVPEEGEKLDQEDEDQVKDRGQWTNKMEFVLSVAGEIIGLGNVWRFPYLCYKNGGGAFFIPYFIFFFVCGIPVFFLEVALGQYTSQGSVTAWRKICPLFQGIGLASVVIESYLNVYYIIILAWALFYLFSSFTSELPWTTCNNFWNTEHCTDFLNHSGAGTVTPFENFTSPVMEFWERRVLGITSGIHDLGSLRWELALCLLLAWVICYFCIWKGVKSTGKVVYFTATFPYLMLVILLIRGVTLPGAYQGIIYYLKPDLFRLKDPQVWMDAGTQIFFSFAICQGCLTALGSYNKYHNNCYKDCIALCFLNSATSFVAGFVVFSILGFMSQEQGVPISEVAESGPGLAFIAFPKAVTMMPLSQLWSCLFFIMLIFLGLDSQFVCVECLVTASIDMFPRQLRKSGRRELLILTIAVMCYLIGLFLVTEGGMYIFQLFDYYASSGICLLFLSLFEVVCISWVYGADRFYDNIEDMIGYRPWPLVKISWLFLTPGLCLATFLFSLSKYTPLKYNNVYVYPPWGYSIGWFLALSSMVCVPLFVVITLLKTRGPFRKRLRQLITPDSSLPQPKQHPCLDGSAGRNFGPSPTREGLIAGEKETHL
Experimental: HEK293 cells stably expressing human GAT1 (hGAT1), GAT2 (hGAT2), GAT3 (hGAT3), or betaine/GABA transporter 1 (hBGT‐1) were plated onto 96‐well microtiter plates at a density of 4.0 × 10^4 cells/well in Dulbecco's Modified Eagle's Medium (DMEM, containing 10% fetal bovine serum, 100 units/mL penicillin, 100 μg/mL streptomycin, 1% non‐essential amino acid solution, and 25 mM HEPES) and incubated overnight at 37°C in a 5% CO2 atmosphere. After washing the cells with Hanks’ balanced salt solution (HBSS, containing 140 mg/L CaCl2, 100 mg/L MgCl2, 20 mM HEPES, and 10 mM NaOH), E2730 (0.0128–1000 μM) was added to the plate. Following the addition of 50 μM [^3H]GABA, cells were incubated for 5 minutes at 37°C in a 5% CO2 atmosphere and then washed with cold HBSS. Washed cells were incubated in a scintillator for 1 hour at room temperature, followed by radioactivity measurements using a liquid scintillation counter.

T1 sequence (P30531 whole entry): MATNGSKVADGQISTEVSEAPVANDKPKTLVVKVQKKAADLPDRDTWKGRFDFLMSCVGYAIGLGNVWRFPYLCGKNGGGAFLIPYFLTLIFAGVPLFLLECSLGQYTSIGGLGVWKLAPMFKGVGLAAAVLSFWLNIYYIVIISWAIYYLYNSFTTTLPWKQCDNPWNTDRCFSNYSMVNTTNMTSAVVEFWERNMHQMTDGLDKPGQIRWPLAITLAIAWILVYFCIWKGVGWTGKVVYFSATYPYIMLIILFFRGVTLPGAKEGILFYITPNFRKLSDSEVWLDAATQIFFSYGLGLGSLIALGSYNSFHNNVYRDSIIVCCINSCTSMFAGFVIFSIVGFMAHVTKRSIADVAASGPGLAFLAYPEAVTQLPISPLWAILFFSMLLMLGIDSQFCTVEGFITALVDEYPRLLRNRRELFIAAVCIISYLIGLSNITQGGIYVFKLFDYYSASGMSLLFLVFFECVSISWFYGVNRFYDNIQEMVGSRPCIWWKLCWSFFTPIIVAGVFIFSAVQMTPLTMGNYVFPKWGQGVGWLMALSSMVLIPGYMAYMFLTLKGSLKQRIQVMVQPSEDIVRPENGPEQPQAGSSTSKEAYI

With `NS(=O)(=O)N[C@H]1c2c(F)cc(F)cc2CC1(F)F` [E2730] the ED50 (corneal kindling mice) was 7.9 mg/kg, the post-ADT/pre-ADT ratio (amygdala kindling rats; E2730 10 mg/kg oral, 1 hour after administration) was 129% and the post-ADT/pre-ADT ratio (amygdala kindling rats; E2730 20 mg/kg oral) was 159%. For the same compound, the post-ADT/pre-ADT ratio (amygdala kindling rats; E2730 50 mg/kg oral) was 191%, the “Minimum effective dose, amygdala kindling (rat)” value (amygdala kindling rats; oral, footnote a: minimum effective dose) was 10 mg/kg and the ED50 (Fmr1 KO mice) was 17.1 mg/kg. For the same compound, the Bmax [1] was 2503 fmol/mg protein, the Kd [1] was 0.71 µM and the IC50 (hBGT-1) was 890 µM.
